One series relates to SREBP2. Description: SREBP2 cleavage in HEPG2 cells (Western blot normalized to actin). Format: cell-based. As to conditions: Homo sapiens, read-out: Average SREBP2 cleavage (% Inhibition, n = 3). The procedure:
Average SREBP2 cleavage in HEPG2 cells was measured in the presence of compounds disclosed in Table 1. HepG2 cells were seeded at 500,000 cells per well in 6-well plates in DMEM supplemented with 10% FBS. After 2 days, cells were treated with compounds (20 μM) for 1 day in DMEM without FBS. Western blots were normalized with respect to actin.
The results are shown in Table 3 as percent inhibition@20 μM, and in Table 4 as percent inhibition@5 μM.
For orientation: Immunoblotting shows a protein as a band on a membrane.

Series [1] is described as follows: HepG2 cell viability by MTS. In kind it is cell-based. Particulars: human, HepG2 cells, 3 days, DMEM without FBS, MTS, read-out: Average Viability (% Inhibition, n = 3). The procedure: For viability measurements, HepG2 cells were seeded at 5,000 cells per well in 96-well plates in DMEM supplemented with 10% FBS. After 1 day in culture, cells were treated with compounds (20 μM & 5 μM) for 3 days in DMEM without FBS. Viability was measured by MTS. Treatment with compounds (20 μM & 5 μM) was carried out in medium without FBS, and viability was measured by MTS. […]

Where [2] appears, read: 24 h, 20 μM, HepG2 cells, 1 day, DMEM without FBS.

Like-named read-outs stand apart in the source and are kept apart here.

By inhibition is commonly meant the percentage by which the read-out fell short of the control. As for `O=C(c1ccc(-c2nc(-c3ccc(NS(=O)(=O)C(F)(F)F)cc3Cl)cs2)cc1)N1CCCCC1` [Compound 67, N-(3-chloro-4-{2-[4-(piperidine-1-carbonyl)phenyl]-1,3-thiazol-4-yl}phenyl)-1,1,1-trifluoromethanesulfonamide], the inhibition at 20 µM in the series on SREBP2 (setting [2]) was 3%. In series [1], the cytotoxicity at 3 days, 20 μM is 20%.
On to `CCCc1cc(-c2nc(-c3cccc(NS(=O)(=O)C(F)(F)F)c3)cs2)ccn1` [Compound 2, 1,1,1-trifluoro-N-(3-(2-(2-propylpyridin-4-yl)thiazol-4-yl)phenyl)methanesulfonamide], for which the inhibition at 20 µM in the series with SREBP2 (HepG2, 24 h) was 73%. For the same molecule, the cytotoxicity at 3 days, 20 μM in series [1] is 80.5%.
In the case of `O=S(=O)(Nc1ccc(-c2csc(-c3ccc(F)cc3C(F)(F)F)n2)c(Cl)c1)C(F)(F)F` [Compound 81, N-[3-chloro-4-[2-[4-fluoro-2-(trifluoromethyl)phenyl]thiazol-4-yl]phenyl]-1,1,1-trifluoro-methanesulfonamide], the inhibition at 5 µM in the series with SREBP2 (HepG2 cells) is 44%. The cytotoxicity at 3 days, 5 μM in series [1] came to 88%.
The matching figures for `Cc1noc(C)c1-c1nc(-c2ccc(NS(=O)(=O)C(F)(F)F)cc2Cl)cs1` [Compound 77, N-{3-chloro-4-[2-(dimethyl-1,2-oxazol-4-yl)-1,3-thiazol-4-yl]phenyl}-1,1,1-trifluoromethanesulfonamide]: 56% and 41%.
On to `O=S(=O)(Nc1ccc(-c2csc(-c3ccnc(Cl)c3)n2)c(Cl)c1)C(F)(F)F` [Compound 95, N-(3-chloro-4-(2-(2-chloropyridin-4-yl)thiazol-4-yl)phenyl)-1,1,1-trifluoromethanesulfonamide], for which, in the series with SREBP2 (HepG2 cells), the inhibition at 5 µM turned out to be 39%. Further, the cytotoxicity at 3 days, 5 μM in series [1] stood at 86%.
The matching figures for `O=S(=O)(Nc1ccc(-c2csc(-c3ccnc4ccccc34)n2)c(Cl)c1)C(F)(F)F` [Compound 94, N-[3-chloro-4-[2-(4-quinolyl)thiazol-4-yl]phenyl]-1,1,1-trifluoro-methanesulfonamide]: 35% and 84%.
For `CCCc1cc(-c2nc(-c3ccc(NS(=O)(=O)C(F)(F)F)c(O)c3)cs2)ccn1` [Compound 63, 1,1,1-trifluoro-N-(2-hydroxy-4-(2-(2-propylpyridin-4-yl)thiazol-4-yl)phenyl)methanesulfonamide], in the series on SREBP2 (setting [2]), the inhibition at 20 µM turned out to be 39%. Besides, in series [1], the cytotoxicity at 3 days, 20 μM was determined as 47%.
Take `O=S(=O)(Nc1ccc(-c2csc(-c3ccc(C(F)(F)F)c(OCc4ccccc4)c3)n2)c(Cl)c1)C(F)(F)F` [Compound 73, N-(4-{2-[3-(benzyloxy)-4-(trifluoromethyl)phenyl]-1,3-thiazol-4-yl}-3-chlorophenyl)-1,1,1-trifluoromethanesulfonamide]: the inhibition at 5 µM with SREBP2 (HepG2 cells) was determined as 64%. In addition, the cytotoxicity at 3 days, 5 μM in series [1] is 99%.
The matching figures for `O=S(=O)(Nc1ccc(-c2csc(-c3c[nH]c4ccccc34)n2)c(Cl)c1)C(F)(F)F` [Compound 93, N-{3-chloro-4-[2-(1H-indol-3-yl)-1,3-thiazol-4-yl]phenyl}-1,1,1-trifluoromethanesulfonamide]: 28% and 82%.
As to `Nc1cc(-c2nc(-c3ccc(NS(=O)(=O)C(F)(F)F)cc3Cl)cs2)ccn1` [Compound 61, N-{4-[2-(2-aminopyridin-4-yl)-1,3-thiazol-4-yl]-3-chlorophenyl}-1,1,1-trifluoromethanesulfonamide], in the series with SREBP2 (setting [2]), the inhibition at 20 µM was determined as 2%. In addition, the cytotoxicity at 3 days, 20 μM in series [1] came to 43%.
As to `CCCc1cc(-c2nc(-c3ccc(NS(=O)(=O)C(F)(F)F)cc3)cs2)ccn1` [Compound 1, 1,1,1-trifluoro-N-(4-(2-(2-propylpyridin-4-yl)thiazol-4-yl)phenyl)methanesulfonamide], the inhibition at 20 µM in the series on SREBP2 (setting [2]) amounted to 73.7%. The cytotoxicity at 3 days, 20 μM in series [1] amounted to 92.1%.
The matching figures for `O=S(=O)(Nc1ccc(-c2csc(-c3ccnc(NS(=O)(=O)C(F)(F)F)c3)n2)c(Cl)c1)C(F)(F)F` [Compound 66, N-{3-chloro-4-[2-(2-trifluoromethanesulfonamidopyridin-4-yl)-1,3-thiazol-4-yl]phenyl}-1,1,1-trifluoromethanesulfonamide]: 0% and 11%.
For `O=S(=O)(Nc1ccc(-c2csc(-c3cccc(CO)c3)n2)c(Cl)c1)C(F)(F)F` [Compound 83, N-(3-chloro-4-{2-[3-(hydroxymethyl)phenyl]-1,3-thiazol-4-yl}phenyl)-1,1,1-trifluoromethanesulfonamide], the inhibition at 5 µM in the series with SREBP2 (HepG2 cells) was 2%. Also, the cytotoxicity at 3 days, 5 μM in series [1] was determined as 0%.
The corresponding values for `O=S(=O)(Nc1ccc(-c2csc(-c3ccnc4[nH]ccc34)n2)c(Cl)c1)C(F)(F)F` [Compound 87, N-[3-chloro-4-(2-{1H-pyrrolo[2,3-b]pyridin-4-yl}-1,3-thiazol-4-yl)phenyl]-1,1,1-trifluoromethanesulfonamide] are 50% and 9%.
The matching figures for `Cc1cnccc1-c1nc(-c2ccc(NS(=O)(=O)C(F)(F)F)cc2Cl)cs1` [Compound 86, N-{3-chloro-4-[2-(3-methylpyridin-4-yl)-1,3-thiazol-4-yl]phenyl}-1,1,1-trifluoromethanesulfonamide]: 54% and 27%.
The corresponding values for `O=S(=O)(Nc1ccc(-c2csc(-c3cncc4ccccc34)n2)c(Cl)c1)C(F)(F)F` [Compound 75, N-{3-chloro-4-[2-(isoquinolin-4-yl)-1,3-thiazol-4-yl]phenyl}-1,1,1-trifluoromethanesulfonamide] are 55% and 88%.
For `Cc1ccc(S(=O)(=O)Nc2cccc(-c3nc(-c4ccc(NS(=O)(=O)C(F)(F)F)cc4Cl)cs3)c2)cc1` [Compound 78, N-{3-[4-(2-chloro-4-trifluoromethanesulfonamidophenyl)-1,3-thiazol-2-yl]phenyl}-4-methylbenzene-1-sulfonamide], in the series on SREBP2 (HepG2 cells), the inhibition at 5 µM worked out at 38%. The cytotoxicity at 3 days, 5 μM in series [1] amounted to 87%.
As to `O=S(=O)(Nc1ccc(-c2csc(-c3c(F)cnc4[nH]ccc34)n2)c(Cl)c1)C(F)(F)F` [Compound 89, N-[3-chloro-4-(2-{5-fluoro-1H-pyrrolo[2,3-b]pyridin-4-yl}-1,3-thiazol-4-yl)phenyl]-1,1,1-trifluoromethanesulfonamide], the inhibition at 5 µM in the series with SREBP2 (HepG2 cells) is 53%.
On to `CCCc1cc(-c2nc(-c3ccc(NS(=O)(=O)C(F)(F)F)c(OC)c3)cs2)ccn1` [Compound 58, 1,1,1-trifluoro-N-{2-methoxy-4-[2-(2-propylpyridin-4-yl)-1,3-thiazol-4-yl]phenyl}methanesulfonamide], for which the inhibition at 20 µM in the series with SREBP2 (setting [2]) turned out to be 29.4%. Moreover, the cytotoxicity at 3 days, 20 μM in series [1] was found to be 67.9%.
On to `CN1CCN(c2cc(-c3nc(-c4ccc(NS(=O)(=O)C(F)(F)F)cc4Cl)cs3)ccn2)CC1` [Compound 76, N-(3-chloro-4-{2-[2-(4-methylpiperazin-1-yl)pyridin-4-yl]-1,3-thiazol-4-yl}phenyl)-1,1,1-trifluoromethanesulfonamide], for which the inhibition at 5 µM in the series on SREBP2 (HepG2 cells) was 7%. Further, the cytotoxicity at 3 days, 5 μM in series [1] is 3%.
The matching figures for `O=S(=O)(Nc1ccc(-c2csc(-c3ccnc(NC4CCCC4)c3)n2)c(Cl)c1)C(F)(F)F` [Compound 92, N-(3-chloro-4-{2-[2-(cyclopentylamino)pyridin-4-yl]-1,3-thiazol-4-yl}phenyl)-1,1,1-trifluoromethanesulfonamide]: 59% and 94%.
Take `CS(=O)(=O)Nc1cc(-c2nc(-c3ccc(NS(=O)(=O)C(F)(F)F)cc3Cl)cs2)ccn1` [Compound 62, N-{3-chloro-4-[2-(2-methanesulfonamidopyridin-4-yl)-1,3-thiazol-4-yl]phenyl}-1,1,1-trifluoromethanesulfonamide]: the inhibition at 20 µM with SREBP2 (setting [2]) was determined as 0%. Moreover, the cytotoxicity at 3 days, 20 μM in series [1] was found to be 0%.
Turning to `COc1cc(-c2csc(-c3ccnc(CC(C)C)c3)n2)ccc1NS(=O)(=O)C(F)(F)F` [Compound 57, 1,1,1-trifluoro-N-(2-methoxy-4-{2-[2-(2-methylpropyl)pyridin-4-yl]-1,3-thiazol-4-yl}phenyl)methanesulfonamide], the inhibition at 20 µM in the series on SREBP2 (setting [2]) was determined as 46.9%. Moreover, the cytotoxicity at 3 days, 20 μM in series [1] was found to be 56.4%.
Take `COc1ccc(-c2nc(-c3ccc(NS(=O)(=O)C(F)(F)F)cc3Cl)cs2)cc1OC` [Compound 79, N-{3-chloro-4-[2-(3,4-dimethoxyphenyl)-1,3-thiazol-4-yl]phenyl}-1,1,1-trifluoromethanesulfonamide]: the inhibition at 5 µM with SREBP2 (HepG2 cells) came to 65%. Further, the cytotoxicity at 3 days, 5 μM in series [1] stood at 74%.
The matching figures for `O=S(=O)(Nc1ccc(-c2csc(-c3ccccc3-c3ccccc3)n2)c(Cl)c1)C(F)(F)F` [Compound 74, N-{3-chloro-4-[2-(2-phenylphenyl)-1,3-thiazol-4-yl]phenyl}-1,1,1-trifluoromethanesulfonamide]: 76% and 97%.
Turning to `O=S(=O)(Nc1ccc(-c2csc(-c3ccccc3CO)n2)c(Cl)c1)C(F)(F)F` [Compound 84, N-(3-chloro-4-{2-[2-(hydroxymethyl)phenyl]-1,3-thiazol-4-yl}phenyl)-1,1,1-trifluoromethanesulfonamide], in the series with SREBP2 (HepG2 cells), the inhibition at 5 µM turned out to be 20%. In addition, the cytotoxicity at 3 days, 5 μM in series [1] amounted to 18%.
